{"source": "patent US11224224B2", "about": "“Thiobenzoimidazole as fungicides” (REDAG CROP PROTECTION LTD, priority 2017, dated 2022)", "assay_type_in_all_cases": "cell-based", "key": {"Phytophthora cactorum": {"test_system": "Phytophthora cactorum", "assay": "96 well plate test (amended agar with spores)", "details": "96 well plate, 20, 2, 0.2 and 0.02 ppm, 1% PDA, 2 to 3 days (cells marked *), read-out: EC50 Phytophthora spp. (*96 well plate format vs. Phytophthora cactorum)", "experimental": "Compounds were screened in 96 well plates with 10 compounds per plate. Each compound was screened using agar amended to 20, 2, 0.2 and 0.02 ppm, with Proline at 50 and 10 ppm and 0.2% DMSO used as controls. Each test concentration and standard was replicated twice on a plate. Compounds were screened against Phytophthora cactorum. The agar used in the test is a 1% PDA. 1000 spores/mL agar were added to the appropriate agar.\nA ×10 stock solution in 2% DMSO was produced for each dose i.e. 200, 20, 2 and 0.2 ppm, and 10 μl of this added to the appropriate wells on the plate. An equivalent amount of 2% DMSO and Proline stock at 500 and 100 ppm were added for the controls. To each well 90 μl of the appropriate agar spore suspension was added to give the required final well concentrations. Plates were incubated at room temperature (18° C.) and assessed after 2 to 3 days. The amount of pathogen growth in each well was compared to the DMSO controls and an EC50 concentration was calculated. The results are provided in Table 1 in which G represents an EC50 above 20 ppm, F represents an EC50 of 1-20 ppm and E represents an EC50 less than 1 ppm."}, "oomycete plant pathogens": {"test_system": "oomycete plant pathogens", "assay": "Fungicidal activity testing, overall summary", "details": "summary statement on Table 1", "experimental": "The activity of compounds of the invention was assessed by testing against certain oomycete plant pathogens and representative data are presented in Table 1."}, "Pythium ultimum [1]": {"test_system": "Pythium ultimum", "assay": "Amended agar assay (PDA), colony growth", "details": "Globisporangium ultimum; 20 ppm in amended PDA, 18° C., reduction in colony growth vs control plate", "experimental": "(§1) Testing was carried out on potato dextrose agar (PDA) amended with each compound at a test concentration of 20 ppm. Amended agar was poured into three replicate 9 cm petri dishes. Each replicate dish was inoculated in the centre with a 5 mm agar plug taken from the leading edge of a culture aged between 2 and 7 days old; the age of the culture was dependant on the growth rate of the pathogen being tested. The test pathogens were Pythium ultimum and Phytophthora cinnamomi. Plates were incubated at 18° C. and the diameter of each colony measured before growth on the fastest growing plate reached the plate edge. This varied between 2 and 7 days depending on the growth rate of test pathogens. The % reduction in colony growth compared to the control plate was calculated for each pathogen. The results are provided in Table 1, in which D represents no control detected at this concentration; C represents up to 50% control; B from 50 to 99% control; and A represents a control of greater than 99%, i.e. no detectable colony growth.\n(§2) Alternatively, or in addition, the same assay was conducted at descending test concentrations with 5-fold dilutions typically down to 0.032 ppm though sometimes as low as 0.00026 ppm, and an EC50 (the concentration at which 50% control would be achieved) was determined. The results are provided in Table 1 in which G represents an EC50 above 20 ppm, F represents an EC50 of 1-20 ppm and E represents and EC50 less than 1 ppm."}, "Phytophthora cinnamomi": {"test_system": "Phytophthora cinnamomi", "assay": "Amended agar assay (PDA), colony growth", "details": "Phytophthora cinnamomi; 20 ppm in amended PDA, 18° C., reduction in colony growth vs control plate; read-out: % control Phytophthora spp. 20 ppm", "experimental": "as §1, §2"}, "Pythium ultimum [2]": {"test_system": "Pythium ultimum", "assay": "Amended agar assay (PDA), colony growth", "details": "Globisporangium ultimum; read-out: % control Pythium ultimum 2 ppm"}}}
{"smiles": "Clc1cncnc1-n1c(SCc2ccccn2)nc2ccccc21", "note": "[Example 59, 1-(5-Chloropyrimidin-4-yl)-2-((pyridin-2-ylmethyl)thio)-1H-benzo[d]imidazole]", "values": [{"measurement": "EC50", "setting": "Phytophthora cactorum", "result": "1 to 20", "unit": "µg/mL"}, {"measurement": "control over the pathogens tested", "setting": "oomycete plant pathogens", "result": "good to excellent control"}, {"measurement": "inhibition of growth at 20 ppm", "setting": "Pythium ultimum [1]", "result": "> 99", "unit": "%"}, {"measurement": "inhibition of growth at 20 ppm", "setting": "Phytophthora cinnamomi", "result": "> 99", "unit": "%"}, {"measurement": "inhibition of growth at 2 ppm", "setting": "Pythium ultimum [2]", "result": "> 99", "unit": "%"}]}
